# Experimental data taken from ChEMBL document CHEMBL1128313, “In vitro muscarinic activity of spiromuscarones and related analogs” (J Med Chem, 1995).
# The source made the active and inactive calls. The rule behind the calls is not given here.
# What was measured:
# Rattus norvegicus = species: Rattus norvegicus; assay: The compound was tested for maximum stimulation of PI (phosphatidyl inositol) in rat hippocampal tissue, activity is expressed as percent of carbachol response; Inactive; assay type: functional; settings: Hippocampus
# [1] = target: Muscarinic acetylcholine receptor
# Description: Binding affinity against muscarinic acetylcholine receptor from rat brain crude membrane, using [3H]-NMS (N-Methylscopolamine) as the radioligand.
Ki [1] [µM],Structure (SMILES),Max stimulation (Rattus norvegicus)
,CC1OC2(CCN(C)CC2)C2SCCSC12 (stereo unspecified),inactive
33,CC1CC(=O)C2(CCN(C)CC2)O1 (stereo unspecified),
141,CC1OC2(CCN(C)CC2)CC1O (stereo unspecified),
,CC1OC2(CCN(C)CC2)C2OCCOC12 (stereo unspecified),inactive
2.68,CC1OC2(CCN(C)CC2)CC1=O (stereo unspecified),
30,CC1CC(O)C2(CCN(C)CC2)O1 (stereo unspecified),
430,CC1OC2(CCN(C)CC2)CC1O.Cl (stereo unspecified),

Structure (SMILES),Ki [1] [µM],Max stimulation (Rattus norvegicus)
CC1OC2(CCN(C)CC2)C/C1=N\O (stereo unspecified),1.63,
CCC(=O)O/N=C1\COC2(CCN(C)CC2)C1.O=C(O)/C=C\C(=O)O.O=C(O)C(=O)O,38.1,
CC(=O)OC1COC2(CCN(C)CC2)C1 (stereo unspecified),98.7,
CC(=O)O/N=C1\COC2(CCN(C)CC2)C1.O=C(O)/C=C\C(=O)O.O=C(O)C(=O)O,44.8,
